Literature values in patent publication US20240207206A1, “Improved Topical Composition of Colchicine” (Zenvision Pharma LLP, priority 2019, published 2024).

Conditions: in water

COc1cc2c(c(OC)c1OC)-c1ccc(OC)c(=O)cc1[C@@H](NC(C)=O)CC2 [Colchicine, (S)N-(5,6,7,9-tetrahydro-1,2,3, 10-tetramethoxy-9-oxobenzo[alpha]heptalen-7-yl) acetamide]
Solubility: soluble in water
